These results are taken from ChEMBL document CHEMBL1129776, “Design of dual-acting thromboxane antagonist-synthase inhibitors by a mutual prodrug approach” (Bioorg Med Chem Lett, 1996).

Molecules are shown by their SMILES. Several values for one entry are separate records, joined by “and”; a condition that tells them apart may be missing. Equal values may be shown once.

For one assay, the target named is T1, Thromboxane-A synthase (Homo sapiens, UniProt P24557).
T1 sequence (P24557 whole entry): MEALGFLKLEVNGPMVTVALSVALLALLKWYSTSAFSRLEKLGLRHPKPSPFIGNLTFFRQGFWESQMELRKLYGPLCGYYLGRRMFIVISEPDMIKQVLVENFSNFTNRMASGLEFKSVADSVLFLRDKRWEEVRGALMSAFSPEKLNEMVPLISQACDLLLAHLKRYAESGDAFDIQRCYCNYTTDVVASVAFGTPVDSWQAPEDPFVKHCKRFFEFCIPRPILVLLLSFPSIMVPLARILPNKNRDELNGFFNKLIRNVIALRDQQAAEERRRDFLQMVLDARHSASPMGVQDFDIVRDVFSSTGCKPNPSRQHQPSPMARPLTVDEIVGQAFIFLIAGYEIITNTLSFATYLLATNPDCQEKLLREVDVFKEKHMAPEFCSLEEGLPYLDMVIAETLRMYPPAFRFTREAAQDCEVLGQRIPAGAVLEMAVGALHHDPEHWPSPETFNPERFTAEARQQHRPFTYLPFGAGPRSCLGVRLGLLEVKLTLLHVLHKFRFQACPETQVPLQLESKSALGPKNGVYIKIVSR
Briefly: Compound was tested for thromboxane TXA2 synthase inhibitory activity using human platelet.

Assay [1] deals with Canis familiaris. The assay is described as follows: Compound was tested for plasma concentration ratio at 2 hr in conscious dogs at specified time intervals at a dose of 1.0 mg/kg. In kind it is functional, Canis lupus familiaris.
The test system of assay [2] is Canis familiaris. Briefly: Compound was tested for plasma concentration ratio at 8 hr in conscious dogs at specified time intervals at a dose of 1.0 mg/kg. The class given is functional, Canis lupus familiaris.
In assay [3] the target is T2, Thromboxane-A synthase (Homo sapiens) (UniProt P24557).
T2 sequence (whole entry): T1 sequence (P24557 whole entry)
Briefly: Compound was evaluated for inhibition of TXA2 synthase by measuring collagen stimulated TXB2 production in the blood samples after 2 hr time at a dose of 1.0 mg/kg. The class given is functional, organism-based. The arrangement: dose 1 mg/kg. Particulars: Canis lupus familiaris.

For assay [4], the target named is T2, Thromboxane-A synthase (Homo sapiens). Briefly: (§1) Compound was evaluated for inhibition of TXA2 synthase by measuring collagen stimulated TXB2 production in the blood samples after 8 hr time at a dose of 1.0 mg/kg. The class given is functional, organism-based. Further details: dose 1 mg/kg. The settings on record: Canis lupus familiaris.
In a further assay the target is T3, Thromboxane A2 receptor (Homo sapiens, UniProt P21731).
T3 sequence (P21731 whole entry): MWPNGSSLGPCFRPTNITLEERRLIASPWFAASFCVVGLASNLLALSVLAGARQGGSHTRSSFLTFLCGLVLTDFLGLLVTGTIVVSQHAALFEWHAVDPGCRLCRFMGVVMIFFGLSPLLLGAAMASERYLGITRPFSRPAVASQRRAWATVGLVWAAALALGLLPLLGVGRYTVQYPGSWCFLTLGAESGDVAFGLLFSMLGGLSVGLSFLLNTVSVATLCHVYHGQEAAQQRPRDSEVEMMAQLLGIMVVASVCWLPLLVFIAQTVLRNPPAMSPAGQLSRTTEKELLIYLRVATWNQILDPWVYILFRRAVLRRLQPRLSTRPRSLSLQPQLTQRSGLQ
Briefly: Thromboxane (TXA2) receptor antagonist activity using human platelet. The class given is functional. The settings on record: for Kb: read-out: pA2 (converted).

Assay [5] has as its target T2, Thromboxane-A synthase (Homo sapiens). Described as §1. The class given is functional, organism-based. Further details: dose 1 mg/kg. The settings on record: Canis lupus familiaris. This is another data set of the same source.
Assay [6] shares this target. Briefly: Compound was evaluated for inhibition of TXA2 synthase by measuring collagen stimulated TXB2 production in the blood samples after 8 hr time at a dose of 0.05 mg/kg. The class given is functional, organism-based. Particulars: Canis lupus familiaris. Further details: dose 0.05 mg/kg.
Assay [7] shares this target. The assay is described as follows: Compound was evaluated for inhibition of TXA2 synthase by measuring collagen stimulated TXB2 production in the blood samples after 2 hr time at a dose of 0.05 mg/kg. In kind it is functional, organism-based. The arrangement: dose 0.05 mg/kg. Particulars: Canis lupus familiaris.
Assay [8] relates to Canis familiaris. Briefly: Compound was tested for plasma concentration ratio at 2 hr in conscious dogs at specified time intervals at a dose of 0.05 mg/kg. In kind it is functional, Canis lupus familiaris.
For assay [9], the system named is Canis familiaris. Briefly: Compound was tested for plasma concentration ratio at 8 hr in conscious dogs at specified time intervals at a dose of 0.05 mg/kg. In kind it is functional, Canis lupus familiaris.
Assay [10] has as its system Canis familiaris. Briefly: Compound was tested ex vivo for plasma concentration ratio at 2 hr in conscious dogs at specified time intervals at a dose of 0.05 mg/kg. The class given is functional, Canis lupus familiaris.
Assay [11] relates to Canis familiaris. The assay is described as follows: Compound was tested ex vivo for plasma concentration ratio at 8 hr in conscious dogs at specified time intervals at a dose of 0.05 mg/kg. In kind it is functional, Canis lupus familiaris.

As to `N#Cc1ccc([C@H]2OC[C@@H](C/C=C\CCC(=O)O)[C@@H](c3cccnc3)O2)cc1`, the midpoint of inhibition against Thromboxane-A synthase, the IC50, lay at 0.02 µM. The Ratio with Canis familiaris [1] was determined as 1.4; with Canis familiaris [2], 1.3. In addition, the inhibition was 97% and 84% in assay [3]; 93% in [4]; 84% in [5]. For the same molecule, the Kb on Thromboxane A2 receptor is 1.26 µM.

For the molecule `N#Cc1ccc([C@H]2OC[C@@H](C/C=C\CCC(=O)Oc3ccccc3OC(=O)CC/C=C\C[C@@H]3CO[C@H](c4ccccc4Cl)O[C@@H]3c3ccccc3O)[C@@H](c3cccnc3)O2)cc1` (stereo in doubt; 15) [listing 1 of 2 here], the inhibition in [6] was 57%; in assay [7], 54%.

For the molecule `O=C(O)CC/C=C\C[C@@H]1CO[C@H](c2ccccc2Cl)O[C@@H]1c1ccccc1O`, the IC50 on Thromboxane-A synthase is greater than 10 µM. The inhibition in assay [6] and in assay [7] was greater than 50% each time.

Turning to `N#Cc1ccc([C@H]2OC[C@@H](C/C=C\CCC(=O)Oc3ccccc3OC(=O)CC/C=C\C[C@@H]3CO[C@H](c4ccccc4Cl)O[C@@H]3c3ccccc3O)[C@@H](c3cccnc3)O2)cc1` (stereo in doubt; 15) [listing 2 of 2 here], the IC50 on Thromboxane-A synthase is greater than 10 µM. Moreover, the Ratio with Canis familiaris [8] (0.05 mg/kg) amounted to 140; in the assay with Canis familiaris [9] (0.05 mg/kg) it was 170. In addition, the pA2 at Thromboxane A2 receptor came to 5.

As for `N#Cc1ccc([C@H]2OC[C@@H](C/C=C\CCC(=O)NCCCCCCNC(=O)CC/C=C\C[C@@H]3CO[C@H](c4ccc(C#N)cc4)O[C@@H]3c3ccccc3O)[C@@H](c3cccnc3)O2)cc1`, the half-inhibitory concentration (IC50) on Thromboxane-A synthase was greater than 10 µM. For the same molecule, on Thromboxane A2 receptor, the Kb is 10 µM.

In turn, `N#Cc1ccc([C@H]2OC[C@@H](C/C=C\CCC(=O)Oc3ccccc3OC(=O)CC/C=C\C[C@@H]3CO[C@H](c4ccccc4Cl)O[C@@H]3c3ccccc3O)[C@@H](c3cccnc3)O2)cc1` (stereo in doubt; 16 (-)) [listing 1 of 2 here] yielded an IC50 at Thromboxane-A synthase greater than 10 µM. Also, the Ratio stood at 35 with Canis familiaris [8] (0.05 mg/kg) and 150 with Canis familiaris [9] (0.05 mg/kg). In addition, on Thromboxane A2 receptor, the Kb was 10 µM.

Regarding `N#Cc1ccc([C@H]2OC[C@@H](C/C=C\CCC(=O)Oc3ccccc3OC(=O)CC/C=C\C[C@@H]3CO[C@H](c4ccc(C#N)cc4)O[C@@H]3c3ccccc3O)[C@@H](c3cccnc3)O2)cc1`, the IC50 against Thromboxane-A synthase was greater than 10 µM. In addition, the values for the Ratio with Canis familiaris [8] and in the assay with Canis familiaris [9] were 587 and 283, respectively. The inhibition in [6] was less than 50%; in assay [7], 68%. Besides, the Kb on Thromboxane A2 receptor is 10 µM.

As for `N#Cc1ccc([C@H]2OC[C@@H](C/C=C\CCC(=O)OCCOC(=O)CC/C=C\C[C@@H]3CO[C@H](c4ccc(C#N)cc4)O[C@@H]3c3ccccc3O)[C@@H](c3cccnc3)O2)cc1`, at Thromboxane-A synthase, the IC50 is greater than 10 µM. The Kb at Thromboxane A2 receptor was greater than 10 µM.

`N#Cc1ccc([C@H]2OC[C@@H](C/C=C\CCC(=O)NCCNC(=O)CC/C=C\C[C@@H]3CO[C@H](c4ccc(C#N)cc4)O[C@@H]3c3ccccc3O)[C@@H](c3cccnc3)O2)cc1`: the IC50 against Thromboxane-A synthase is greater than 10 µM. Also, the Kb at Thromboxane A2 receptor is 10 µM.

`N#Cc1ccc([C@H]2OC[C@@H](C/C=C\CCC(=O)O)[C@@H](c3ccccc3O)O2)cc1`: the Ratio with Canis familiaris [10] worked out at 60; with Canis familiaris [11], 35. This molecule registered an IC50 at Thromboxane-A synthase greater than 10 µM. Besides, the inhibition in assay [6] and in assay [7] was greater than 50% in each case. Besides, on Thromboxane A2 receptor, the Kb is 0.00501 µM.

At Thromboxane-A synthase, `N#Cc1ccc([C@H]2OC[C@@H](C/C=C\CCC(=O)OCCCCCCOC(=O)CC/C=C\C[C@@H]3CO[C@H](c4ccc(C#N)cc4)O[C@@H]3c3ccccc3O)[C@@H](c3cccnc3)O2)cc1` showed an IC50 greater than 10 µM. The Kb on Thromboxane A2 receptor was 10 µM.

Regarding `N#Cc1ccc([C@H]2OC[C@@H](C/C=C\CCC(=O)Oc3ccc(OC(=O)CC/C=C\C[C@@H]4CO[C@H](c5ccc(C#N)cc5)O[C@@H]4c4ccccc4O)cc3)[C@@H](c3cccnc3)O2)cc1`, at Thromboxane-A synthase, the IC50 is greater than 10 µM. At Thromboxane A2 receptor, the Kb was 10 µM.

For the molecule `N#Cc1ccc([C@H]2OC[C@@H](C/C=C\CCC(=O)Oc3ccccc3OC(=O)CC/C=C\C[C@@H]3CO[C@H](c4ccccc4Cl)O[C@@H]3c3ccccc3O)[C@@H](c3cccnc3)O2)cc1` (stereo in doubt; 16 (-)) [listing 2 of 2 here], the values for the inhibition in assay [6] and in assay [7] were 64% and 31%, respectively.
